# Reference: publication PMC6374164 (Organic & biomolecular chemistry, 2019)
# What was measured:
# BPTF bromodomain = BPTF bromodomain (Homo sapiens, UniProt Q12830); assay: PrOF NMR binding to 5FW-labeled BPTF bromodomain; settings: 5FW BPTF bromodomain, 19F resonance of W2824
# [1] = Aqueous solubility by solution turbidity; type: physicochemical
# CDKL2 = biological target: T1, CDKL2 (Homo sapiens, UniProt Q92772); settings: tested at 1 μM; cited from earlier work
# T1 sequence (Q92772 1-493): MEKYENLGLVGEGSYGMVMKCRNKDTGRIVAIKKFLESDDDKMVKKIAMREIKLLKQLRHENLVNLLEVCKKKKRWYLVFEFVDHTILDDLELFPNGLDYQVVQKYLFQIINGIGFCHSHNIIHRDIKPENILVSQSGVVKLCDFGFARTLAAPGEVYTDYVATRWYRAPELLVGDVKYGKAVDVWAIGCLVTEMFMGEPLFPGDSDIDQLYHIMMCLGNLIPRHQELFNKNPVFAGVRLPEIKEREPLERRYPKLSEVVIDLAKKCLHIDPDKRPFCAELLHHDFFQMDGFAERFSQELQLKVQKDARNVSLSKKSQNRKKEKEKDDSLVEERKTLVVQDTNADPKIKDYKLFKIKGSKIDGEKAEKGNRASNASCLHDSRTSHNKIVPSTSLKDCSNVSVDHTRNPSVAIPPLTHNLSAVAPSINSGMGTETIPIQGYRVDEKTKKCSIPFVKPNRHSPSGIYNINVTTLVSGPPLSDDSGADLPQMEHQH
# TRKC = TRKC (Homo sapiens, UniProt Q16288); settings: tested at 1 μM; cited from earlier work
# CDK11 = settings: tested at 1 μM; cited from earlier work
# TRKB = settings: tested at 1 μM; cited from earlier work
# HPK1 = settings: tested at 1 μM; cited from earlier work
# p38-δ = settings: tested at 1 μM; cited from earlier work
# parasite = settings: cited from earlier work
# BPTF = settings: cited from earlier work
# breast epithelial cells = settings: cited from earlier work
# Sequence of TRKC (Q16288 32-839): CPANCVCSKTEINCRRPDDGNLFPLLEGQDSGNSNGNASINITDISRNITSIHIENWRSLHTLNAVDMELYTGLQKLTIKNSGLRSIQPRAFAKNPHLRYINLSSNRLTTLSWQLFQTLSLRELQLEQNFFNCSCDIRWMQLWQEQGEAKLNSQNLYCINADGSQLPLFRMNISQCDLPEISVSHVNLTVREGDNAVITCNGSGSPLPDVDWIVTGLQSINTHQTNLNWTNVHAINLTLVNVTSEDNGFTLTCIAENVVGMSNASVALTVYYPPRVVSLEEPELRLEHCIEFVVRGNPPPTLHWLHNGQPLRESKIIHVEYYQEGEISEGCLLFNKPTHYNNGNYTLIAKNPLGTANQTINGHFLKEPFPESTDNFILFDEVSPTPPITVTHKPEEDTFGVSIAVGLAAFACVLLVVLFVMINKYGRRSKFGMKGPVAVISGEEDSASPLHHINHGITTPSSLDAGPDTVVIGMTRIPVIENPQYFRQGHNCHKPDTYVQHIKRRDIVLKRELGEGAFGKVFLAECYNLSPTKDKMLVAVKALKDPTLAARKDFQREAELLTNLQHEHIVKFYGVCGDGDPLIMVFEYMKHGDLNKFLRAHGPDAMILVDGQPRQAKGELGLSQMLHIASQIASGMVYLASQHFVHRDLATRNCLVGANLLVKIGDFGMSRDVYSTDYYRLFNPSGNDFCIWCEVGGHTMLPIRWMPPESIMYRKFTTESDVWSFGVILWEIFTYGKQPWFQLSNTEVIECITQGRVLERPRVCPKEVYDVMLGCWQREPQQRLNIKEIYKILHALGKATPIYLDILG
compound,measurement,setting,value
COC(=O)c1cccc(NC(=O)NC2CCN(c3ccnc(Nc4ccc(F)cc4)n3)C2)c1 (racemic) [rac-1],PrOF NMR binding behaviour of the 5FW BPTF resonance,BPTF bromodomain,significant broadening of the fluorine resonance
same,solubility (concentration above which solution turbidity increases),[1],~ 100 μM
same,inhibition of CDKL2,CDKL2,82%
same,inhibition of TRKC,TRKC,82%
same,inhibition of CDK11,CDK11,51–68%
same,inhibition of TRKB,TRKB,51–68%
same,inhibition of HPK1,HPK1,51–68%
same,inhibition of p38-δ,p38-δ,51–68%
same,antimalarial activity,parasite,has shown antimalarial activity
same,transcription in a BPTF-specific reporter assay,BPTF,reducing transcription
same,effects in breast epithelial cells,breast epithelial cells,"decreased c-MYC regulated genes, c-MYC chromatin occupancy, and led to G1 cell cycle arrest"
